Results as given in US4521538A (Medosan Industrie Biochimiche Riunite S.p.A., priority 1982, dated 1985).
Where a name gives a salt, the structure may show the parent alone. Read-outs that look alike come from different tables or passages of the source.

What was measured:
[1] = Mucolytic activity in vitro, consistency of human expectoration; conditions: 12 experiments
Method: The experiment was carried out "in vitro" according to the method of R. S. Hirsch (Bull. […] Table IV lists the percentage decrease of the expectoration consistency provoked by the compound of this invention in comparison with dithiothreitol and acetylcysteine which are known mucolytic agents.

[2] = Antiinflammatory activity, carrageenin-induced oedema test; format: in vivo, rats
Method: This effect was evaluated by means of an experimental model reproducing acute inflammation in rats: for this purpose the carrageenin-induced oedema test was employed following the method described by C. A. Winter (J. Pharmac. Exp. […] Wong, J. F. Gardocki and T. P. Pruss, J. Pharmac. Exp. Ther. 185 (1): 127, 1973). Table I lists the tested compounds, the concentration thereof, routes of administration and relative percentage oedema inhibitions; the data are commented upon at the end of the Tables.

[3] = Antitussive activity (method of Y. Kase); format: in vivo, albino male Guinea-pigs
Method: The antitussive effect on albino male Guinea-pigs weighing 300 g was evaluated using the method described by Y. Kase (Selected Pharmacological Testing Methods, p. 363, Marcel Dekker Inc., New York, 1968).

[4] = format: in vivo, male Wistar rats; conditions: for mean severity: scale 0 (no lesion) to 5 (perforations)
Method: Male Wistar rats weighing 180 g were randomized into groups of 10. Three doses of each compound were administered. One group received the vehicle alone (10 ml/kg b.w.). Each dose was given orally for four days consecutively and the rats were sacrificed on the fifth day for necropsy. The ulcerogenic effect was evaluated by the following scale:
(1) each haemorrhagic point at least 1 mm in diameter was scored as 1 lesion,
(2) haemorrhagic points less than 1 mm in diameter were scored in the following manner:
(c) 20 to 29=three lesions
(2) gastric mucosal irritation without haemorrhage: 1
(3) haemorrhagic points less than 1 mm in diameter: 2
(4) haemorrhagic points between 1 and 3 mm in diameter: 3
(5) haemorrhagic points larger than 3 mm in diameter: 4
By means of this scale it was possible to obtain the gastric damage index: [formula]

[5] = Analgesic activity, phenylquinone-induced writhing test; format: in vivo
Method: The inhibiting effect on the abdominal contractions induced by phenyl-p-quinone was calculated by the following formula: [formula]
Table II lists the doses, routes of administration and their efficacy expressed as percentage of protection.

Q: For `O[C@H](CS)[C@H](O)CS` (racemic) [Dithiothreitol], which “% decrease of expectoration consistency” value ([1]; 0.1 M (1.5%)) is on record?
A: 90%

Q: For `COc1ccc2c(c1)c(CC(=O)O)c(C)n2C(=O)c1ccc(Cl)cc1` [Indomethacin], which Oedema % inhibition ([2]; 2.5 mg/kg i.p., 2 h) is on record?
A: 21.0%

Q: What about the Oedema % inhibition ([2]; 2.5 mg/kg i.p., 4 h) of the same compound?
A: 20.0%

Q: What about the Oedema % inhibition ([2]; 2.5 mg/kg i.p., 6 h) of the same compound?
A: 17.0%

Q: What about the Oedema % inhibition ([2]; 2.5 mg/kg i.p., 24 h) of the same compound?
A: 2.5%

Q: And the Oedema % inhibition ([2]; 2.5 mg/kg per os, 2 h)?
A: 18.6%

Q: What about the Oedema % inhibition ([2]; 2.5 mg/kg per os, 4 h) of the same compound?
A: 20.7%

Q: And the Oedema % inhibition ([2]; 2.5 mg/kg per os, 6 h)?
A: 19.2%

Q: What about the Oedema % inhibition ([2]; 2.5 mg/kg per os, 24 h) of the same compound?
A: 2.6%

Q: What about the Oedema % inhibition ([2]; 5 mg/kg i.p., 2 h) of the same compound?
A: 30.0%

Q: What about the Oedema % inhibition ([2]; 5 mg/kg i.p., 4 h) of the same compound?
A: 29.0%

Q: What about the Oedema % inhibition ([2]; 5 mg/kg i.p., 6 h) of the same compound?
A: 23.0%

Q: What about the Oedema % inhibition ([2]; 5 mg/kg i.p., 24 h) of the same compound?
A: 3.4%

Q: And the Oedema % inhibition ([2]; 5 mg/kg per os, 2 h)?
A: 26.3%

Q: What about the Oedema % inhibition ([2]; 5 mg/kg per os, 4 h) of the same compound?
A: 29.1%

Q: What about the Oedema % inhibition ([2]; 5 mg/kg per os, 6 h) of the same compound?
A: 28.5%

Q: What about the Oedema % inhibition ([2]; 5 mg/kg per os, 24 h) of the same compound?
A: 2.7%

Q: What about the Oedema % inhibition ([2]; 10 mg/kg i.p., 2 h) of the same compound?
A: 49.7%

Q: And the Oedema % inhibition ([2]; 10 mg/kg i.p., 4 h)?
A: 46.0%

Q: And the Oedema % inhibition ([2]; 10 mg/kg i.p., 6 h)?
A: 48.1%

Q: And the Oedema % inhibition ([2]; 10 mg/kg i.p., 24 h)?
A: 8.0%

Q: And the Oedema % inhibition ([2]; 10 mg/kg per os, 2 h)?
A: 48.2%

Q: And the Oedema % inhibition ([2]; 10 mg/kg per os, 4 h)?
A: 49.0%

Q: What about the Oedema % inhibition ([2]; 10 mg/kg per os, 6 h) of the same compound?
A: 46.0%

Q: What about the Oedema % inhibition ([2]; 10 mg/kg per os, 24 h) of the same compound?
A: 7.9%

Q: Which results are given for `Cc1ccc(C(=O)c2ccc(CC(=O)O)n2C)cc1` [Tolmetin Na.2H2 O, 1-mehtyl-5-p-toluoyl-2-acetic acid sodium salt dihydrate]?
A: % inhibition, amplitude of coughs ([3]; 50 mg/kg i.p.): 0%; % inhibition, frequency of coughs ([3]; 50 mg/kg i.p.): 0%; % inhibition, amplitude of coughs ([3]; 50 mg/kg per os): 0%; % inhibition, frequency of coughs ([3]; 50 mg/kg per os): 0%; % inhibition, amplitude of coughs ([3]; 75 mg/kg i.p.): 0%; % inhibition, frequency of coughs ([3]; 75 mg/kg i.p.): 10%; % inhibition, amplitude of coughs ([3]; 75 mg/kg per os): 7%; % inhibition, frequency of coughs ([3]; 75 mg/kg per os): 0%; % inhibition, amplitude of coughs ([3]; 100 mg/kg i.p.): 7%; % inhibition, frequency of coughs ([3]; 100 mg/kg i.p.): 10%; % inhibition, amplitude of coughs ([3]; 100 mg/kg per os): 5%; % inhibition, frequency of coughs ([3]; 100 mg/kg per os): 5%; mean severity ([4]; 50 mg/kg orally, four days): 2; mean No. of lesions ([4]; 100 mg/kg orally, four days): 2.5; mean severity ([4]; 100 mg/kg orally, four days): 3.5; mean No. of lesions ([4]; 200 mg/kg orally, four days): 3; mean severity ([4]; 200 mg/kg orally, four days): 4; mean No. of lesions ([4]; rat, in vivo): 2; Oedema % inhibition ([2]; 25 mg/kg i.p., 2 h): 28.0%; Oedema % inhibition ([2]; 25 mg/kg i.p., 4 h): 29.1%; Oedema % inhibition ([2]; 25 mg/kg i.p., 6 h): 32.1%; Oedema % inhibition ([2]; 25 mg/kg i.p., 24 h): 8.9%; Oedema % inhibition ([2]; 25 mg/kg per os, 2 h): 24.6%; Oedema % inhibition ([2]; 25 mg/kg per os, 4 h): 26.2%; Oedema % inhibition ([2]; 25 mg/kg per os, 6 h): 30.1%; Oedema % inhibition ([2]; 25 mg/kg per os, 24 h): 6.2%; Oedema % inhibition ([2]; 50 mg/kg i.p., 2 h): 47.0%; Oedema % inhibition ([2]; 50 mg/kg i.p., 4 h): 49.1%; Oedema % inhibition ([2]; 50 mg/kg i.p., 6 h): 40.0%; Oedema % inhibition ([2]; 50 mg/kg i.p., 24 h): 7.1%; Oedema % inhibition ([2]; 50 mg/kg per os, 2 h): 43.1%; Oedema % inhibition ([2]; 50 mg/kg per os, 4 h): 46.0%; Oedema % inhibition ([2]; 50 mg/kg per os, 6 h): 41.3%; Oedema % inhibition ([2]; 50 mg/kg per os, 24 h): 9.1%; Oedema % inhibition ([2]; 100 mg/kg i.p., 2 h): 64.1%; Oedema % inhibition ([2]; 100 mg/kg i.p., 4 h): 65.8%; Oedema % inhibition ([2]; 100 mg/kg i.p., 6 h): 60.2%; Oedema % inhibition ([2]; 100 mg/kg i.p., 24 h): 11.2%; Oedema % inhibition ([2]; 100 mg/kg per os, 2 h): 60.8%; Oedema % inhibition ([2]; 100 mg/kg per os, 4 h): 60.0%; Oedema % inhibition ([2]; 100 mg/kg per os, 6 h): 64.5%; Oedema % inhibition ([2]; 100 mg/kg per os, 24 h): 14.6%; % protection ([5]; 5 mg/kg i.p.): 16.5%; % protection ([5]; 5 mg/kg per os): 15.0%; % protection ([5]; 10 mg/kg i.p.): 46.2%; % protection ([5]; 10 mg/kg per os): 40.6%; % protection ([5]; 20 mg/kg i.p.): 69.1%; % protection ([5]; 20 mg/kg per os): 62.0%

Q: With `CC(=O)N[C@@H](CS)C(=O)O` [acetylcysteine] as the compound, how does the “% decrease of expectoration consistency” value ([1]; […] (20.0%)) read?
A: 81%
